Measured values taken from publication PMC4979471 (Cell Death Discovery, 2015).
Where two headings read alike, the source gives them in different places.

Legend:
Test in all cases: Kinase selectivity, P33-radiolabeled assay
Assay type in all cases: biochemical
Conditions in all cases: 10 μM ATP
PKCg = molecular target: T1, PKCg (Homo sapiens, UniProt P05129)
T1 construct: purchased Reaction Biology Corp
Procedure, shortened: (§1)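 ATP at 10 μM; test article at 10 μM, single point, two replicates. Output is activity as % of DMSO.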

WNK2 = molecular target: T2, WNK2 (Homo sapiens, UniProt Q9Y3S1)
T2 construct: purchased Reaction Biology Corp
Procedure, shortened: as §1

ALK4/ACVR1B = molecular target: T3, ALK4/ACVR1B (Homo sapiens, UniProt P36896)
T3 construct: purchased Reaction Biology Corp
T3 sequence (P36896 24-505): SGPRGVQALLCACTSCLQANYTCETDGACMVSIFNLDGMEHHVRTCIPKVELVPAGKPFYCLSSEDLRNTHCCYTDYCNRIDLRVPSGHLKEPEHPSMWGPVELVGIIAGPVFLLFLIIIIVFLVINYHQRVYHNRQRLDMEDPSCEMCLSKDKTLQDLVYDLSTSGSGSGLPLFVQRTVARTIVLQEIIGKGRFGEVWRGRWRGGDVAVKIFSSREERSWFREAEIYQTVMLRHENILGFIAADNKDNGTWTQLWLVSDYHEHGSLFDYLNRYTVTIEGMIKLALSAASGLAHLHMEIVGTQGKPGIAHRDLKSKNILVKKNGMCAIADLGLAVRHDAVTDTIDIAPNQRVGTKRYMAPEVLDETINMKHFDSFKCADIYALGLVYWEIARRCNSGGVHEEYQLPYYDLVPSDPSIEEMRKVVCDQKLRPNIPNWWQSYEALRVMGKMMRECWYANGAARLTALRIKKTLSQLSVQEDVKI
Procedure, shortened: as §1

MRCKa/CDC42BPA = molecular target: T4, MRCKa/CDC42BPA (Homo sapiens, UniProt Q5VT25)
T4 construct: purchased Reaction Biology Corp
Procedure, shortened: as §1

P38a/MAPK14 = molecular target: T5, P38a/MAPK14 (Homo sapiens, UniProt Q16539)
T5 construct: purchased Reaction Biology Corp
Procedure, shortened: as §1

IKKb/IKBKB = molecular target: T6, IKKb/IKBKB (Homo sapiens, UniProt O14920)
T6 construct: purchased Reaction Biology Corp
T6 sequence (O14920 1-756): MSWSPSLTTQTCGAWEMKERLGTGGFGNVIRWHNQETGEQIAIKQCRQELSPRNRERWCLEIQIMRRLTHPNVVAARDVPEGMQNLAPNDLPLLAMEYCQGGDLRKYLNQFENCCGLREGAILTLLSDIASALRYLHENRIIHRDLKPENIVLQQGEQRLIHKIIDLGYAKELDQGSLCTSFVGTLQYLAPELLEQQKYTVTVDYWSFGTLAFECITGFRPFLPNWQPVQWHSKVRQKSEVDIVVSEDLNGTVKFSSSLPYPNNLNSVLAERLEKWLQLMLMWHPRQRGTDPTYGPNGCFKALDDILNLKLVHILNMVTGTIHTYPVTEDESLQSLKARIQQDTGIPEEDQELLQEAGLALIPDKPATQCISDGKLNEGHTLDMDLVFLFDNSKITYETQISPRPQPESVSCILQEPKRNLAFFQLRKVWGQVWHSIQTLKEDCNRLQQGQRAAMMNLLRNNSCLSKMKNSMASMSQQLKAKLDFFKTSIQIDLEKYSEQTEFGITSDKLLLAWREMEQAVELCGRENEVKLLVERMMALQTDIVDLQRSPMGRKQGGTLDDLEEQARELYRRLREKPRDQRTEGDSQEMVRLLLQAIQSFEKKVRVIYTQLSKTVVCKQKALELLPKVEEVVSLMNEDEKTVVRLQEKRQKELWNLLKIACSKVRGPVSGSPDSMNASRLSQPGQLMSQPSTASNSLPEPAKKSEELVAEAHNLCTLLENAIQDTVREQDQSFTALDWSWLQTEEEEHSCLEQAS
Procedure, shortened: as §1

MAPKAPK3 = molecular target: T7, MAPKAPK3 (Homo sapiens, UniProt Q16644)
T7 construct: purchased Reaction Biology Corp
Procedure, shortened: as §1

BMPR2 = molecular target: T8, BMPR2 (Homo sapiens, UniProt Q13873)
T8 construct: purchased Reaction Biology Corp
T8 sequence (Q13873 27-1038): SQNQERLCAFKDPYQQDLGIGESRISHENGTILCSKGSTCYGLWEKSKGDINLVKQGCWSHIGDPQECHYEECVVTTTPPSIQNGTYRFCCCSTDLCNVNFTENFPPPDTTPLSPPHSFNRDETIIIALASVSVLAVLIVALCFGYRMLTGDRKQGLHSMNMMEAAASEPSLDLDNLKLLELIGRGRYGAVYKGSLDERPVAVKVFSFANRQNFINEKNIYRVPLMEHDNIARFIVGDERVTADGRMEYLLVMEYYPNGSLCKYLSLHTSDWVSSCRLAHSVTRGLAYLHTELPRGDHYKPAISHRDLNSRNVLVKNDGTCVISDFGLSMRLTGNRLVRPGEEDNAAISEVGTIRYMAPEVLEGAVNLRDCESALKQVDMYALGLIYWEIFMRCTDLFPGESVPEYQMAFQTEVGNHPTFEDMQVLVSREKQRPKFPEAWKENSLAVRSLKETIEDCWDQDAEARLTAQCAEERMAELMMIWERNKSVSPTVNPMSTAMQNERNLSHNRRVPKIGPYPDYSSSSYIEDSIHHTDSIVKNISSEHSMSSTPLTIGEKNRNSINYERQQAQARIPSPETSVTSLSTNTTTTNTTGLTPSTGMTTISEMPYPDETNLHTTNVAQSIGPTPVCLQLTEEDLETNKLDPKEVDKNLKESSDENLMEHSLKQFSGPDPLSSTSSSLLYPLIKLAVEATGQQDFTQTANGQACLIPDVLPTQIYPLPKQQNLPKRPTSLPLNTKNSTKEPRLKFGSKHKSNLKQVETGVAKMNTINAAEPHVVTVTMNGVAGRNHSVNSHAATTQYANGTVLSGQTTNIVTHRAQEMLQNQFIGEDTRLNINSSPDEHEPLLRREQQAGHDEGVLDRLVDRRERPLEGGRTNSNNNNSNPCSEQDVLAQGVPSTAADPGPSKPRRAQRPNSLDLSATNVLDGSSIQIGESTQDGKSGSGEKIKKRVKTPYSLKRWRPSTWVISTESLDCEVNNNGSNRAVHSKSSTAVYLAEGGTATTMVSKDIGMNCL
Procedure, shortened: as §1

[1] = read-out: % Enzyme Activity (relative to DMSO controls) AVG
[2] = read-out: % Enzyme Activity (relative to DMSO controls) Data 1
[3] = read-out: % Enzyme Activity (relative to DMSO controls) Data 2

T7 sequence (Q16644 whole entry): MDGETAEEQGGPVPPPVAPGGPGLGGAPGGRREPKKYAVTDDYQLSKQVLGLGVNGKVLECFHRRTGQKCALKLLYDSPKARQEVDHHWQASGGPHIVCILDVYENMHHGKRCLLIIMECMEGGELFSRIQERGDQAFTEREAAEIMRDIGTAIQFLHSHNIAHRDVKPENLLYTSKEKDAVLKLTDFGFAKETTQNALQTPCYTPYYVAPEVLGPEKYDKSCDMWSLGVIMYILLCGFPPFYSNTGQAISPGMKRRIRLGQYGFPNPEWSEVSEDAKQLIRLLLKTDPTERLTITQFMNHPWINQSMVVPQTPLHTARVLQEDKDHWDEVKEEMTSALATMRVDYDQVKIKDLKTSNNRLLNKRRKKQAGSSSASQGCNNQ
T2 sequence (Q9Y3S1 whole entry): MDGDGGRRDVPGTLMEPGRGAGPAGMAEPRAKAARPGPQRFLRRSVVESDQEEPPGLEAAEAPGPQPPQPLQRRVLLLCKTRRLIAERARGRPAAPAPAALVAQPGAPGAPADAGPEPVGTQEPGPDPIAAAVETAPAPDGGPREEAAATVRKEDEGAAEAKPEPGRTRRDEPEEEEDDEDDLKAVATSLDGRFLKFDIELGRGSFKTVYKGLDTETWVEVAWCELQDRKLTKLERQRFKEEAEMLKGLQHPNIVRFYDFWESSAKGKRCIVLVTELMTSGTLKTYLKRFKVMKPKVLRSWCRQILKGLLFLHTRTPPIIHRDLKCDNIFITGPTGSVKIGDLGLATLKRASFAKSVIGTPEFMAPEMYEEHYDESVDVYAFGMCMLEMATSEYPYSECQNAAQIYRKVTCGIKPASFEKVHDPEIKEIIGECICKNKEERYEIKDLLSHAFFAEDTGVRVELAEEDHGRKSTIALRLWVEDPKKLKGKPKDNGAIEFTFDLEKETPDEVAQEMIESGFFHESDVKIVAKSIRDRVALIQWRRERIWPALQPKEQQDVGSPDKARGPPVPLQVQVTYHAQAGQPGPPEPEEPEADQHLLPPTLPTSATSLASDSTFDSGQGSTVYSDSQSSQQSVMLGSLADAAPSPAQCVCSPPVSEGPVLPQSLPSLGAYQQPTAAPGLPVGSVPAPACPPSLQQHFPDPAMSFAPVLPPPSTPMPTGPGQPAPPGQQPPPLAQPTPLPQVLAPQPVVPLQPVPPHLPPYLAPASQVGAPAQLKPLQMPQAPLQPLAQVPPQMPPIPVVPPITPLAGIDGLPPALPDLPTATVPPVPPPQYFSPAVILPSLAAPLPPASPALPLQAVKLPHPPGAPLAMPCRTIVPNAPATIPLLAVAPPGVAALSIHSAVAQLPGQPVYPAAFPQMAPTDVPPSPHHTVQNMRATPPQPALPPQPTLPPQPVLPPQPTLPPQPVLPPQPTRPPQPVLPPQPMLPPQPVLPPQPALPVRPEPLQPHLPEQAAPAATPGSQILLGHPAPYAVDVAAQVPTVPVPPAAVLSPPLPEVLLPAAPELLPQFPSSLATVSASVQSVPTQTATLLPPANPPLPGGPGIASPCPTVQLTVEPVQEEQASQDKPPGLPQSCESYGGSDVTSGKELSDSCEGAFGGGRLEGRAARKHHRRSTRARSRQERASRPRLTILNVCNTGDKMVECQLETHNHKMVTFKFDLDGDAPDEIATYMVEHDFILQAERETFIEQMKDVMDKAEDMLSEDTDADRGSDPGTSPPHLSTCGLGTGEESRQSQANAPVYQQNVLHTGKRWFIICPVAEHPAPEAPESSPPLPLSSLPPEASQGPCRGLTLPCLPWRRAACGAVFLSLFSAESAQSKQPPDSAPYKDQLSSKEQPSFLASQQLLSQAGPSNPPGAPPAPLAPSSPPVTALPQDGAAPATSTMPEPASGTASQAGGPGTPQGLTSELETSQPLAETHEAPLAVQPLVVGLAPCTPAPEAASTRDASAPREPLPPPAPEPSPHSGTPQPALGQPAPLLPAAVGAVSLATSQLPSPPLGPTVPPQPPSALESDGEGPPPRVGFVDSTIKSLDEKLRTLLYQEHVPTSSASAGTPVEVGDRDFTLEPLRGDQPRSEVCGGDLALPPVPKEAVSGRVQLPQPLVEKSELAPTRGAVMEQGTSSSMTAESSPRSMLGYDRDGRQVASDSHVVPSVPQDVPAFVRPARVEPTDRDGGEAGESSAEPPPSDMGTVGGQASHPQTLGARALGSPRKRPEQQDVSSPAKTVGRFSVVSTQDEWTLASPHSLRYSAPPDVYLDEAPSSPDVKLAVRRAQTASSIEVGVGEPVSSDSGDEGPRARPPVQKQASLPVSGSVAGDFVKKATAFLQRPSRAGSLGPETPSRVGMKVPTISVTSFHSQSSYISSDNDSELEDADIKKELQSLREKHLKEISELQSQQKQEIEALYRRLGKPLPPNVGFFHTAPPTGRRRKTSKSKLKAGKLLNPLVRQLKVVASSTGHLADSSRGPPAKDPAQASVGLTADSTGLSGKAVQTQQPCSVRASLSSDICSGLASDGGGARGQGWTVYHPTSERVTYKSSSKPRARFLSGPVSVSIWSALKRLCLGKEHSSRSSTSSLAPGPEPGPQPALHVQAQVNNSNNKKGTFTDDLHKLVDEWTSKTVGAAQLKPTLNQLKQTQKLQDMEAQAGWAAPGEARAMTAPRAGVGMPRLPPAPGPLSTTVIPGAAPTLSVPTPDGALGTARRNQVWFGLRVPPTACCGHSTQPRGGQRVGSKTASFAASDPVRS
T5 sequence (Q16539 whole entry): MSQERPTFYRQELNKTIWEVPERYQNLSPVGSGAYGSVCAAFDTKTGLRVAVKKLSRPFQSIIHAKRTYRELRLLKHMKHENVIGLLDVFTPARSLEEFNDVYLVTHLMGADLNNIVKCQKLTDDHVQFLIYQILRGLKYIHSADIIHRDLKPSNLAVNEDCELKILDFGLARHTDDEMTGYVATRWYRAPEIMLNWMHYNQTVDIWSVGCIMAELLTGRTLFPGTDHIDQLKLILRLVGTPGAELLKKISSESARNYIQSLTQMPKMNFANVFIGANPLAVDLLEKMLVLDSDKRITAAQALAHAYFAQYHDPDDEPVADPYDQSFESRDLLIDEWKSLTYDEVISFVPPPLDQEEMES

**Q.** How did the remaining activity at 10 µM (PKCg; [1]) turn out when `CC(C)(C)C(=O)N1N=CC[C@H]1c1ccccc1` [GSK′963] was run?
**A.** The remaining activity at 10 µM was 88.5%.

**Q.** What about the remaining activity at 10 µM (PKCg; [2]) of the same compound?
**A.** Its remaining activity at 10 µM is 86.8%.

**Q.** And the remaining activity at 10 µM (PKCg; [3])?
**A.** Its remaining activity at 10 µM is 90.2%.

**Q.** And the remaining activity at 10 µM (WNK2; [1])?
**A.** The remaining activity at 10 µM was 97.4%.

**Q.** And the remaining activity at 10 µM (WNK2; [2])?
**A.** Its remaining activity at 10 µM is 99.3%.

**Q.** And the remaining activity at 10 µM (WNK2; [3])?
**A.** The remaining activity at 10 µM was 95.5%.

**Q.** And the remaining activity at 10 µM (ALK4/ACVR1B; [1])?
**A.** The remaining activity at 10 µM was 103%.

**Q.** And the remaining activity at 10 µM (ALK4/ACVR1B; [2])?
**A.** The remaining activity at 10 µM was 104%.

**Q.** What about the remaining activity at 10 µM (ALK4/ACVR1B; [3]) of the same compound?
**A.** Its remaining activity at 10 µM is 102%.

**Q.** What about the remaining activity at 10 µM (MRCKa/CDC42BPA; [1]) of the same compound?
**A.** The remaining activity at 10 µM was 111%.

**Q.** And the remaining activity at 10 µM (MRCKa/CDC42BPA; [2])?
**A.** Its remaining activity at 10 µM is 110%.

**Q.** And the remaining activity at 10 µM (MRCKa/CDC42BPA; [3])?
**A.** The remaining activity at 10 µM was 112%.

**Q.** And the remaining activity at 10 µM (P38a/MAPK14; [1])?
**A.** The remaining activity at 10 µM was 94%.

**Q.** What about the remaining activity at 10 µM (P38a/MAPK14; [2]) of the same compound?
**A.** The remaining activity at 10 µM was 92.9%.

**Q.** And the remaining activity at 10 µM (P38a/MAPK14; [3])?
**A.** Its remaining activity at 10 µM is 95.2%.

**Q.** And the remaining activity at 10 µM (IKKb/IKBKB; [1])?
**A.** The remaining activity at 10 µM was 111%.

**Q.** What about the remaining activity at 10 µM (IKKb/IKBKB; [2]) of the same compound?
**A.** The remaining activity at 10 µM was 110%.

**Q.** And the remaining activity at 10 µM (IKKb/IKBKB; [3])?
**A.** Its remaining activity at 10 µM is 112%.

**Q.** And the remaining activity at 10 µM (MAPKAPK3; [1])?
**A.** Its remaining activity at 10 µM is 103%.

**Q.** And the remaining activity at 10 µM (MAPKAPK3; [2])?
**A.** The remaining activity at 10 µM was 104%.

**Q.** What about the remaining activity at 10 µM (MAPKAPK3; [3]) of the same compound?
**A.** The remaining activity at 10 µM was 103%.

**Q.** And the remaining activity at 10 µM (BMPR2; [1])?
**A.** The remaining activity at 10 µM was 103%.

**Q.** And the remaining activity at 10 µM (BMPR2; [2])?
**A.** Its remaining activity at 10 µM is 102%.

**Q.** And the remaining activity at 10 µM (BMPR2; [3])?
**A.** Its remaining activity at 10 µM is 103%.
